Laboratory results from paper PMC10882265 (RSC Advances, 2024).
pIC50: −log10 of the molar value. Values joined by “and” are separate entries in the source; they are usually repeats but may differ in a detail not shown here. Equal values may be shown once.

Legend:
human recombinant DPP-4 = human recombinant DPP-4 (Homo sapiens, UniProt P27487); test: biochemical; settings: Inhibition of DPP-4 IC50, mean of three experiments
murine model of T2DM = settings: oral, high fat diet + streptozotocin T2DM ref 35; cited from earlier work

Sequence of human recombinant DPP-4 (P27487 whole entry): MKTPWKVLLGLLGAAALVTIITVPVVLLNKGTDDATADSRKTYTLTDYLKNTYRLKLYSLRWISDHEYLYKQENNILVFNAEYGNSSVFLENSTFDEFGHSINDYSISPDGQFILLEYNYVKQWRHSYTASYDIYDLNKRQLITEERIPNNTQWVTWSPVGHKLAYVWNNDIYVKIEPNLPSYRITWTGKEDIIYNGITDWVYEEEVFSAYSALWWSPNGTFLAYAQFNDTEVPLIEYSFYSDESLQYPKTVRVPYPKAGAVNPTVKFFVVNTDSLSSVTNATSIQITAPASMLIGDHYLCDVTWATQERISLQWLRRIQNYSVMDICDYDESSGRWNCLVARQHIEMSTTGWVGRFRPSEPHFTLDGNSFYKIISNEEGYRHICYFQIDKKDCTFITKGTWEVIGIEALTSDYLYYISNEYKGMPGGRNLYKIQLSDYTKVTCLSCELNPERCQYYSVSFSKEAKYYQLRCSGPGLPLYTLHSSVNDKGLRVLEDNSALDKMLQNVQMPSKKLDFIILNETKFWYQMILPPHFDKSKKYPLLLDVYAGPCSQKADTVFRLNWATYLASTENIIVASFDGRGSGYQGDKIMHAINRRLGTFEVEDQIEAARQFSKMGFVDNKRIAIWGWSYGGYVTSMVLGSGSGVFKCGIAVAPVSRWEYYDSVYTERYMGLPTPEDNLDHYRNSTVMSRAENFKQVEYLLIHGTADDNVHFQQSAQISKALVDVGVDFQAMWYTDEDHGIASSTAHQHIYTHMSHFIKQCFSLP

## NC(CC(=O)NNCc1ccc(F)c(F)c1)Cc1cc(F)c(F)cc1F (stereo not shown) [LASSBio-2127 (13), 3-amino-N'-(3,4-difluorobenzyl)-4-(2,4,5-trifluorophenyl)butanehydrazide]
Human recombinant DPP-4
  pIC50: 5.54 and 5.53

## N[C@H](CC(=O)N/N=C/c1ccc(F)c(F)c1)Cc1cc(F)c(F)cc1F [LASSBio-2130 (6-S), (S,E)-3-amino-N'-(3,4-difluorobenzylidene)-4-(2,4,5-trifluorophenyl)butanehydrazide]
Human recombinant DPP-4
  pIC50: 4.35

## N[C@@H](CC(=O)N1CCn2c(nnc2C(F)(F)F)C1)Cc1cc(F)c(F)cc1F [Sitagliptin (1), sitagliptin]
Murine model of T2DM
  antihyperglycemic effect: showed antihyperglycemic effects
  effect on cardiac and renal dysfunction: improved cardiac and renal dysfunction
